Experimental findings from ChEMBL document CHEMBL3045800 (2003) are described below.

Some results are limits rather than exact numbers.

The test system of one experiment is Oryza sativa. It counts as functional,  cv. Nipponbare.
Experiment [1] relates to Pyricularia oryzae. Description: Inhibition of appressorium formation in Magnaporthe oryzae at 80 ppm after 48 hr by microscopy based cellulose membrane method. The experiment is classed as functional. Conditions: read-out: INH.
Experiment [2] has as its system Pyricularia oryzae. The experiment in a line: Inhibition of appressorium formation in Magnaporthe oryzae at 20 ppm after 48 hr by microscopy based cellulose membrane method. Conditions: read-out: INH. It counts as functional.
In experiment [3] the test system is Pyricularia oryzae. Description: Inhibition of spore germination in Magnaporthe oryzae at 80 ppm after 48 hr. The experiment is classed as functional. Conditions: read-out: INH.
Experiment [4] concerns Pyricularia oryzae. Description: Inhibition of mycelial growth in Magnaporthe oryzae at 800 ppm after 7 days by hyphal growth inhibition assay. The experiment is classed as functional. Conditions: 168 h, read-out: INH.
The subject of experiment [5] is Pyricularia oryzae. Description: Inhibition of spore germination in Magnaporthe oryzae at 40 ppm after 48 hr. The experiment is classed as functional. Conditions: read-out: INH.
Experiment [6] deals with Pyricularia oryzae. Description: Inhibition of appressorium formation in Magnaporthe oryzae at 40 ppm after 48 hr by microscopy based cellulose membrane method. The note with it: read-out: INH. It counts as functional.
The subject of experiment [7] is Pyricularia oryzae. Description: Inhibition of mycelial growth in Magnaporthe oryzae at 1000 ppm after 7 days by hyphal growth inhibition assay. The experiment is classed as functional. The note with it: 168 h, read-out: INH.
For experiment [8], the system named is Pyricularia oryzae. The experiment in a line: Inhibition of spore germination in Magnaporthe oryzae at 100 ppm after 48 hr. It counts as functional. The note with it: read-out: INH.
Experiment [9] concerns Pyricularia oryzae. Description: Inhibition of spore germination in Magnaporthe oryzae at 20 ppm after 48 hr. The note with it: read-out: INH. It counts as functional.
The subject of experiment [10] is Pyricularia oryzae. The experiment in a line: Inhibition of mycelial growth in Magnaporthe oryzae at 400 ppm after 7 days by hyphal growth inhibition assay. The experiment is classed as functional. Conditions: 168 h, read-out: INH.
Experiment [11] concerns Pyricularia oryzae. Description: Inhibition of appressorium formation in Magnaporthe oryzae at 100 ppm after 48 hr by microscopy based cellulose membrane method. Conditions: read-out: INH. The experiment is classed as functional.
For experiment [12], the system named is Pyricularia oryzae. Description: Inhibition of mycelial growth in Magnaporthe oryzae at 200 ppm after 7 days by hyphal growth inhibition assay. Conditions: 168 h, read-out: INH. It counts as functional.

With `CC(=O)c1cc(Cl)nn1C`, the ED80 in the experiment on Oryza sativa was 5 mg.
The same measure, in the same setting: with `Cn1cc(C(=O)O)c(Cl)n1` the figure was 0.5 mg; with `Cn1nc(Cl)cc1C=O`, greater than 5 mg.
Still for that read-out and setting: with `Cn1ncc(C(=O)O)c1Cl` the figure was greater than 5 mg; with `Cn1nccc1C(=O)O`, greater than 5 mg; with `Cc1cc(C(=O)O)n(C)n1`, 0.5 mg.
Still for that read-out and setting: to `Cn1nc(Br)cc1C(=O)O` belongs 0.05 mg.
For `Cn1nc(Cl)cc1C(=O)O` [3-CHLORO-1-METHYL-1H-PYRAZOLE-5-CARBOXYLIC ACID], in the experiment with Oryza sativa, the ED80 turned out to be 0.05 mg. Moreover, the inhibition at 80 ppm in the experiment on Pyricularia oryzae [1] was determined as 10%; in the experiment with Pyricularia oryzae [3] it was 0%. For the same compound, the inhibition at 20 ppm with Pyricularia oryzae [2] and in the experiment on Pyricularia oryzae [9] was 0% throughout. In addition, in the experiment with Pyricularia oryzae [4], the inhibition at 800 ppm stood at 0%. Further, the inhibition at 40 ppm in the experiment on Pyricularia oryzae [5] and in the experiment on Pyricularia oryzae [6] was 0% each time. For the same compound, the inhibition at 1000 ppm with Pyricularia oryzae [7] amounted to 47.5%. The inhibition at 100 ppm in the experiment on Pyricularia oryzae [8] is 35.4%; with Pyricularia oryzae [11], 41.6%. Moreover, the inhibition at 400 ppm in the experiment with Pyricularia oryzae [10] is 0%. Also, the inhibition at 200 ppm in the experiment on Pyricularia oryzae [12] worked out at 0%.
In turn, `COC(=O)c1cc(Cl)nn1C` displayed an ED80 in the experiment with Oryza sativa of 0.05 mg.
Still for that read-out and setting: to `Cn1nc(Cl)cc1CC(=O)O` belongs 5 mg; to `COC(=O)Nc1cc(Cl)nn1C`, greater than 5 mg.
